According to PubChem BioAssay AID2060333 (Molecular Pharmacology Branch, DTP, NCI, 2025):

Test system: 845751-090-R-J2-PDC tumor spheroid viability
Experiment: Anticancer human tumor 845751-090-R-J2-PDC patient-derived head and neck squamous carcinoma cell line growth inhibition [IpAb]
Settings: spheroids with HUVEC and MSC; for IC50: curve of first compound; for viability, T/C: stronger effect = lower value
In short: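 Multi-cell spheroids of 60% tumour cells, 25% HUVEC and 15% MSC in ultra-low-attachment U-bottom wells, treated with agents combined with ipatasertib or abemaciclib. Half-log ranges top out near clinical Cmax, or 10 microM when Cmax is unknown.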

[1] = second compound 0.01 µM, first compound 0.0316 µM
[2] = second compound 0.01 µM, first compound 0.1 µM
[3] = second compound 0.01 µM, first compound 0.316 µM
[4] = second compound 0.01 µM, first compound 1 µM
[5] = second compound 0.01 µM, first compound 3.16 µM
[6] = second compound 0.01 µM, first compound 10 µM
[7] = second compound 0.0316 µM, first compound 0.0316 µM
[8] = second compound 0.0316 µM, first compound 0.1 µM
[9] = second compound 0.0316 µM, first compound 0.316 µM
[10] = second compound 0.0316 µM, first compound 1 µM
[11] = second compound 0.0316 µM, first compound 3.16 µM
[12] = second compound 0.0316 µM, first compound 10 µM
[13] = second compound 0.1 µM, first compound 0.0316 µM
[14] = second compound 0.1 µM, first compound 0.1 µM
[15] = second compound 0.1 µM, first compound 0.316 µM
[16] = second compound 0.1 µM, first compound 1 µM
[17] = second compound 0.1 µM, first compound 3.16 µM
[18] = second compound 0.1 µM, first compound 10 µM
[19] = second compound 0.316 µM, first compound 0.0316 µM
[20] = second compound 0.316 µM, first compound 0.1 µM
[21] = second compound 0.316 µM, first compound 0.316 µM
[22] = second compound 0.316 µM, first compound 1 µM
[23] = second compound 0.316 µM, first compound 3.16 µM
[24] = second compound 0.316 µM, first compound 10 µM
[25] = second compound 1 µM, first compound 0.0316 µM
[26] = second compound 1 µM, first compound 0.1 µM
[27] = second compound 1 µM, first compound 0.316 µM
[28] = second compound 1 µM, first compound 1 µM
[29] = second compound 1 µM, first compound 3.16 µM
[30] = second compound 1 µM, first compound 10 µM
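Note: spheroids exposed to compounds for 7 days before readout.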
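Throughout, for viability, T/C: CTG3D luminescence normalised so that 100% = DMSO vehicle control.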

SMILES | IC50 (second compound 0.01 µM) [nM] | IC50 (second compound 0.0316 µM) [nM] | IC50 (second compound 0.1 µM) [nM] | IC50 (second compound 0.316 µM) [nM] | IC50 (second compound 1 µM) [nM] | viability, T/C [1] [%] | viability, T/C [2] [%] | viability, T/C [3] [%] | viability, T/C [4] [%] | viability, T/C [7] [%] | viability, T/C [8] [%] | viability, T/C [9] [%] | viability, T/C [10] [%] | viability, T/C [13] [%] | viability, T/C [14] [%] | viability, T/C [15] [%] | viability, T/C [16] [%] | viability, T/C [19] [%] | viability, T/C [20] [%] | viability, T/C [21] [%] | further results
CC1(C)CCC(CN2CCN(c3ccc(C(=O)NS(=O)(=O)c4ccc(NCC5CCOCC5)c([N+](=O)[O-])c4)c(Oc4cnc5[nH]ccc5c4)c3)CC2)=C(c2ccc(Cl)cc2)C1 + CCN1CCN(Cc2ccc(Nc3ncc(F)c(-c4cc(F)c5nc(C)n(C(C)C)c5c4)n3)nc2)CC1 | 7510 | 7030 | 6370 | 6410 | 6750 | 104 | 119 | 103 | 91.3 | 136 | 90.5 | 80.8 | 93.6 | 75 | 72.2 | 94.6 | 104 | 74.6 | 108 | 92.3 | viability, T/C [5]: 138%; viability, T/C [6]: 29.8%; viability, T/C [11]: 137%; viability, T/C [12]: 24.4%; viability, T/C [17]: 117%; viability, T/C [18]: 22.7%; viability, T/C [22]: 85.3%; viability, T/C [23]: 115%; viability, T/C [24]: 21.6%; viability, T/C [25]: 106%; viability, T/C [26]: 107%; viability, T/C [27]: 102%; viability, T/C [28]: 115%; viability, T/C [29]: 123%; viability, T/C [30]: 18.5%
COc1c(OCCCN2CCOCC2)ccc2c3n(c(=NC(=O)c4cnc(N)nc4)nc12)CCN3 + CCN1CCN(Cc2ccc(Nc3ncc(F)c(-c4cc(F)c5nc(C)n(C(C)C)c5c4)n3)nc2)CC1 | 7.18 | 4.99 | 5.23 | 6.38 | 10.6 | 30.8 | 13.7 | 10.6 | 4.54 | 28.3 | 11.9 | 8.73 | 3.86 | 26.3 | 11.7 | 12.8 | 3.55 | 24.6 | 15.8 | 11.7 | viability, T/C (second compound 0.01 µM, first compound 0.00316 µM): 63.3%; viability, T/C (second compound 0.01 µM, first compound 0.01 µM): 43.5%; viability, T/C (second compound 0.0316 µM, first compound 0.00316 µM): 54%; viability, T/C (second compound 0.0316 µM, first compound 0.01 µM): 43.6%; viability, T/C (second compound 0.1 µM, first compound 0.00316 µM): 56.5%; viability, T/C (second compound 0.1 µM, first compound 0.01 µM): 41.6%; viability, T/C (second compound 0.316 µM, first compound 0.00316 µM): 68.2%; viability, T/C (second compound 0.316 µM, first compound 0.01 µM): 35.9%; viability, T/C [22]: 4.79%; viability, T/C (second compound 1 µM, first compound 0.00316 µM): 60%; viability, T/C (second compound 1 µM, first compound 0.01 µM): 54.1%; viability, T/C [25]: 31.2%; viability, T/C [26]: 21.5%; viability, T/C [27]: 12.6%; viability, T/C [28]: 5.48%
Cc1nc(NC(=O)N2CCCC2C(N)=O)sc1-c1ccnc(C(C)(C)C(F)(F)F)c1 (stereo not given) + CCN1CCN(Cc2ccc(Nc3ncc(F)c(-c4cc(F)c5nc(C)n(C(C)C)c5c4)n3)nc2)CC1 | 101 | 76.4 | < 31.6 | 36.2 | 114 | 69.5 | 46.2 | 37.3 | 28.9 | 62.1 | 41.9 | 40.9 | 22.5 | 41.8 | 43.6 | 27.4 | 20.8 | 51.2 | 39.8 | 25.9 | viability, T/C [5]: 12.9%; viability, T/C [6]: 11.6%; viability, T/C [11]: 15.5%; viability, T/C [12]: 10.9%; viability, T/C [17]: 14.7%; viability, T/C [18]: 10.1%; viability, T/C [22]: 20.9%; viability, T/C [23]: 17.9%; viability, T/C [24]: 12.4%; viability, T/C [25]: 54.9%; viability, T/C [26]: 50.5%; viability, T/C [27]: 42.4%; viability, T/C [28]: 24.1%; viability, T/C [29]: 18.7%; viability, T/C [30]: 11.3%
